Measured values reported in patent US20240174718A1, “RYANODINE RECEPTOR INHIBITOR COMPOUNDS AND METHODS RELATING THERETO” (Vanderbilt University, priority 2022, published 2024).
Where two headings read alike, the source gives them in different places.

Tests used:
[1] = In vivo pharmacokinetic study after intraperitoneal administration; parameters: species or system mouse; settings: for half-life: 3 mg/kg
Method: FIGS. 11(A-B) show in vivo pharmacokinetics in mice for a compound of the present invention. […] N=3 mice. Plasma collected serially at 0.167, 0.333. 0.5, 1, 3, and 8 hours post-administration. […] Individual data points (grey) shown alongside mean values with connecting lines.
In vivo pharmacokinetic study—The pharmacokinetic study was carried out by a contract research organization, Pharmaron, Inc. Mice were housed with free access to food and water. All protocols and procedures were compliant with Animal care and Use Application approved by the Institution Animal Care and Use Committee of Pharmaron, Inc., (protocol #PH-DMPK-VUMC-22-003) following the guidance of the Association for Assessment and Accreditation of Laboratory Animal Care (AAALAC). An ent-B1 dose of 3 mg/kg (drug/body weight) was used. Three male CDI mice, age 6-8 weeks, were selected for the study. Mice were injected intraperitoneally with ent-B1 dissolved in solution containing 10% Tween 20, 10% DMSO, 40% water, and 40% PEG-400 (v/v, 5 mL/kg), with a final concentration of 0.6 mg/mL. 30 μL of blood was collected from each animal at 10, 20, 30, 60, 180, and 480 minutes following drug administration and centrifuged at 5000×g, 4° C. for 5 minutes to obtain plasma. The samples were stored at −75±15° C. until analysis.
LC-MS/MS analysis of ent-B1—LC-MS/MS with electronspray ionization in the positive ion mode setting was used to detect ent-B1 followed by multiple reaction monitoring of precursor and product ions as follows: ent-B1 (mass-to-charge ratio [m/z] 640.18 to 214.00). Mouse plasma was quantified using nine standards (0.5-1000 ng/ml) and four quality control levels (1, 2, 50, 800 ng/ml) prepared independently of those used for the standard curve. 20 μL of standards, quality control samples, and unknown samples (10 μL plasma and 10 μL blank solution) were added to 200 μL acetonitrile containing internal standard (dexamethasone; [m/z] 393.40 to 373.30) for protein precipitation. The samples were vortexed for 30 seconds, centrifuged for 15 minutes at 4000 rpm and […], and the supernatant was diluted five times with water. Samples were then loaded into SIL-30AC autosampler and 10 μL was injected into a Shimadzu LC-30AD Series HPLC coupled to an AB Sciex Triple Quad 5500 mass spectrometer. Analytes were separated on a Raptor Biphenyl column (50×2.1 mm, 2.7 um) using a 95:5 (v/v) mobile phase mixture of 0.1% formic acid in water (mobile phase A) and 0.1% formic acid in acetonitrile (mobile phase B) at the flow rate of 0.6 ml/min. The gradient for mobile phase B was increased to 95% over 1.4 minutes with a total run time of 2.5 minutes for each sample. All quality controls and standards met the following acceptance criteria 1) standard curve of at least five standards are within 15% of their nominal concentrations and at least 50% at each quality control level (low, medium, and high) were within 15% of their nominal concentrations.
Pharmacokinetic analysis—Plasma concentrations of ent-B1 at each time point were imported to Phoenix WinNonlin® 8.0 software (Certara USA, Inc., Princeton, NJ). Plasma concentration time profiles for individual animals were analyzed by noncompartmental analysis using model 200 (Plasma; Single Extravascular Dose; Linear Log Trapezoidal Method) to approximate the elimination rate constant (ke), half-life (T1/2), maximum observed plasma concentration (Cmax), time to maximum observed plasma concentration (Tmax), the area under the plasma concentration-time curve from zero to infinity (AUCinf).

RyR2 = target: T1, RyR2 (Mus musculus, UniProt E9Q401); assay: Intracellular Ca2+ measurements / spontaneous Ca2+ release in intact Casq2-/- cardiomyocytes; format: cell-based
T1 construct: spontaneous openings of intracellular RyR2 Ca^2+ release channels; endogenous in cells; host or cells: ventricular cardiomyocytes isolated from Casq2-/- mice (saponin-permeabilized in A1, intact in A7)
T1 sequence (E9Q401 whole entry): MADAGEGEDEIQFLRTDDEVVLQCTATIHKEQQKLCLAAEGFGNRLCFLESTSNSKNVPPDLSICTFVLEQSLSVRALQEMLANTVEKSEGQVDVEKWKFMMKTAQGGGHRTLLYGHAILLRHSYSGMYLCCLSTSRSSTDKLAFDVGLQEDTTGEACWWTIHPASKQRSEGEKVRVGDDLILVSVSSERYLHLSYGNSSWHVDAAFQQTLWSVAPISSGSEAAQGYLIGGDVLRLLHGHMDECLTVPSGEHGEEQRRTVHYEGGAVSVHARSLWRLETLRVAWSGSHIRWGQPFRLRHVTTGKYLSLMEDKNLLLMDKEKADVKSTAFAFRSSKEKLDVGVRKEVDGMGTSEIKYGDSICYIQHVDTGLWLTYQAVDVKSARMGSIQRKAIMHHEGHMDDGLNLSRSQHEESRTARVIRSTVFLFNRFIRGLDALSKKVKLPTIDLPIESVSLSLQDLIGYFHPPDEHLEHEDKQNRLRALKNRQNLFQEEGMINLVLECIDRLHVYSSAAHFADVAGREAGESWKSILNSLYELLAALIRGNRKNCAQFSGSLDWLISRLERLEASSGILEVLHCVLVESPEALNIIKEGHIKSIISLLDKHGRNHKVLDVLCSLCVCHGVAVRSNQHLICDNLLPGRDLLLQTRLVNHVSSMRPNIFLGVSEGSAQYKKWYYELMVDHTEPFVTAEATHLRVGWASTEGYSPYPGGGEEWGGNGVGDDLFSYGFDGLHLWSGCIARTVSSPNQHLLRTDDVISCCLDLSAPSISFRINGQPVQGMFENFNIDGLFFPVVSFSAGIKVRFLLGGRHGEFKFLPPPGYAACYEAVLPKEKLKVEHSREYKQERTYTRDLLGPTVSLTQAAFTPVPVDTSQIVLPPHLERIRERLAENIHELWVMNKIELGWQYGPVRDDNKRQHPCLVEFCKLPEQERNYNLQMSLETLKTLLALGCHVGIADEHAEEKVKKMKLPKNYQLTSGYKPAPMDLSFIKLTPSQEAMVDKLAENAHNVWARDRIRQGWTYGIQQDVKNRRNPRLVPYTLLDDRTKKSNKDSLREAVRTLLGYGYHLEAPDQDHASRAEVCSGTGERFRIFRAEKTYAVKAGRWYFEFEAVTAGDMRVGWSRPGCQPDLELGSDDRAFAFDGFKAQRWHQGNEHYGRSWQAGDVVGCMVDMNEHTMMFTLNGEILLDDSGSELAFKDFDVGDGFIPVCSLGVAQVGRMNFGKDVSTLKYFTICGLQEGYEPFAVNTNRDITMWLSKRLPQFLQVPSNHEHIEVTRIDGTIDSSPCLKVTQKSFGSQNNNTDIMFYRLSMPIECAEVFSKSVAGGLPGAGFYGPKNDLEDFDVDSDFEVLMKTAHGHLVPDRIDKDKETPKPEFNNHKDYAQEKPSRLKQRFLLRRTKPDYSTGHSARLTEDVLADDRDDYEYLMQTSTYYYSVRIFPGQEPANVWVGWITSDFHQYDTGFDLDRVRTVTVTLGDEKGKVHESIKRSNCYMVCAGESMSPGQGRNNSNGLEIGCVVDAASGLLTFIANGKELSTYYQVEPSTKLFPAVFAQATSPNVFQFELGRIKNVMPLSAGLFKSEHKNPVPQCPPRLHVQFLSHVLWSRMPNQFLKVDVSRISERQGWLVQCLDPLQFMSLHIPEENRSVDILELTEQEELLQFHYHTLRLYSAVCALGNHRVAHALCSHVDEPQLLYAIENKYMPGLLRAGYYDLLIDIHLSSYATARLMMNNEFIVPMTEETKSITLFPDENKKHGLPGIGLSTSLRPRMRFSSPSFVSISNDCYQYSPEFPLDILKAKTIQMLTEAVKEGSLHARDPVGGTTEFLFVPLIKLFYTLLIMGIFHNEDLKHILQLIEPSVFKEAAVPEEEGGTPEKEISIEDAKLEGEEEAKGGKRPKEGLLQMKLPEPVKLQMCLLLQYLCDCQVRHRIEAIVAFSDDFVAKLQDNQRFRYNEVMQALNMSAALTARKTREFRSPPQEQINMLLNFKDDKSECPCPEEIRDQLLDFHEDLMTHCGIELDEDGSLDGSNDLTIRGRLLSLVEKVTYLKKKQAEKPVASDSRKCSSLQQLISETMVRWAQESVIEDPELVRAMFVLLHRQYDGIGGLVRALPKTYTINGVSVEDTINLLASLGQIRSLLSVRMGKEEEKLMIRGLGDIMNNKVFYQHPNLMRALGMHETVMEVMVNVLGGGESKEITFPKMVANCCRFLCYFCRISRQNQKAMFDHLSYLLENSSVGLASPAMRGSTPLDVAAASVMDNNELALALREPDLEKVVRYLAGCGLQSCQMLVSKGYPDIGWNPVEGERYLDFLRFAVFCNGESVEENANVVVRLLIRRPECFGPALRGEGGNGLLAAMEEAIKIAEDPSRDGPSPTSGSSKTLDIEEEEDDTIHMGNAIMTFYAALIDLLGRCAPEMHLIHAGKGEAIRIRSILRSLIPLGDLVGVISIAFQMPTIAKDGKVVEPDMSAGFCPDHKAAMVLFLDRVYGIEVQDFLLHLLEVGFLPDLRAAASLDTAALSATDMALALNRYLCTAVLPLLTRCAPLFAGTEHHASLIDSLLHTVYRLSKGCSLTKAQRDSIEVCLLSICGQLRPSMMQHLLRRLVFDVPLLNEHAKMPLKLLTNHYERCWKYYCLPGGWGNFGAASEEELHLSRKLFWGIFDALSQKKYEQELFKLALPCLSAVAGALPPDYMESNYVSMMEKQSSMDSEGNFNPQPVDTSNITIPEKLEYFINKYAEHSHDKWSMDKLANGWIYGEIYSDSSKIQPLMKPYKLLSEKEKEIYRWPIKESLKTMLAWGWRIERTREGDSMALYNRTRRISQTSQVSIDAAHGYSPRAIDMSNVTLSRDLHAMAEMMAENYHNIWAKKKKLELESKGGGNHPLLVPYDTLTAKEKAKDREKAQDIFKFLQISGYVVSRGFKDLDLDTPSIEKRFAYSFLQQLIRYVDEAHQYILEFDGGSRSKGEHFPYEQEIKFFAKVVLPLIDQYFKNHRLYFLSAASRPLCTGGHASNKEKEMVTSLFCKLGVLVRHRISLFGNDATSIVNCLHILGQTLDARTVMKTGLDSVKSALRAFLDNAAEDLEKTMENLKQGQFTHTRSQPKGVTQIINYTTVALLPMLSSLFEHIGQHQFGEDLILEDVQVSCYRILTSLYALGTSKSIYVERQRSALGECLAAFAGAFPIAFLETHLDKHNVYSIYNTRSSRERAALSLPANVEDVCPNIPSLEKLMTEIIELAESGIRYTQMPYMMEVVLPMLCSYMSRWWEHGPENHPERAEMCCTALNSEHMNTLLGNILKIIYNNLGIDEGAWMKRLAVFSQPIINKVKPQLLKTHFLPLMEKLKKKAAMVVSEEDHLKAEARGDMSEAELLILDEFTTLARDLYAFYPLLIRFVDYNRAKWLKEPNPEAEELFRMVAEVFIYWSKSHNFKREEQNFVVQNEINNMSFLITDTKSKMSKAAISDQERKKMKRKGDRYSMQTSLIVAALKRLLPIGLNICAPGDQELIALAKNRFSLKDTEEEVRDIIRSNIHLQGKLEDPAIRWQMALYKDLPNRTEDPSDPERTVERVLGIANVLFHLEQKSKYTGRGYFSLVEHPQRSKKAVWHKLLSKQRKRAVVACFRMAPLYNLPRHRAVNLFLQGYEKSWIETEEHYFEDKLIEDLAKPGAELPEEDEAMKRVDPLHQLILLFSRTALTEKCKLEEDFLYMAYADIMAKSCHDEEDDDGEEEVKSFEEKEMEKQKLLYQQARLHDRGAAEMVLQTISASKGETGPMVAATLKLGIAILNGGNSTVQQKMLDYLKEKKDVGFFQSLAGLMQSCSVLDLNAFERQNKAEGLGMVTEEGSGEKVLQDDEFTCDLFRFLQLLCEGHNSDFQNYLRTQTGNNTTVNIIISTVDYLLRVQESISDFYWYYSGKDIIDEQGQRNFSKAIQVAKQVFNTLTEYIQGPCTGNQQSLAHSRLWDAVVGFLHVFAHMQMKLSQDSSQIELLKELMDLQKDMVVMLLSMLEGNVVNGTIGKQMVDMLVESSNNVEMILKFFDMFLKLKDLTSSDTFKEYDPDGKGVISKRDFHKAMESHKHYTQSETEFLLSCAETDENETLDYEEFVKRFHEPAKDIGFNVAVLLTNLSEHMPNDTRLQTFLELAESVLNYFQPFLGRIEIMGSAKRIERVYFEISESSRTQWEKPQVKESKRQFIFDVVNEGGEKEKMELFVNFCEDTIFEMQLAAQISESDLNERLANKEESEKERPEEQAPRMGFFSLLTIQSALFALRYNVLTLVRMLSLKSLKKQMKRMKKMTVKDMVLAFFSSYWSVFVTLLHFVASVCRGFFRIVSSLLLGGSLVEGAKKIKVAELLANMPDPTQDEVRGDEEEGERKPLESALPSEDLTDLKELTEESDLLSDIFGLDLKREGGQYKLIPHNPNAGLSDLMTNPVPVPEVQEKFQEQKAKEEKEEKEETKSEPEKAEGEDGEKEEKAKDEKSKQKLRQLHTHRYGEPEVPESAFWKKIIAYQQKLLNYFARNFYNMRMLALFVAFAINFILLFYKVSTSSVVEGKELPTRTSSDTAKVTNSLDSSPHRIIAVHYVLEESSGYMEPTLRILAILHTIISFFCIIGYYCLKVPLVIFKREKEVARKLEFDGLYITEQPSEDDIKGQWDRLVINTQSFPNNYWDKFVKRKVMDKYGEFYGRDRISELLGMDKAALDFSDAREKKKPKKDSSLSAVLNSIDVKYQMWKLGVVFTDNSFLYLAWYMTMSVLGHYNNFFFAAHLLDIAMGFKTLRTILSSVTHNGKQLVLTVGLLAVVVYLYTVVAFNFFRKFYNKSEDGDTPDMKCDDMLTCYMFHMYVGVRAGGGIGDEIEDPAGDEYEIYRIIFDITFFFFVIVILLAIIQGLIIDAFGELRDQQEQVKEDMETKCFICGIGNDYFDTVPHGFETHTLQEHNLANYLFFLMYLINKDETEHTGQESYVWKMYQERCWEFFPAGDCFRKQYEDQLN
Method: FIGS. 4(A-G) show intracellular Ca2+ measurements from intact Casq2−/− cardiomyocytes. […] For panels A-D and G, N=26, 30, 30, 30, and 31 cells for DMSO, 0.03, 0.1, 1, and 3 μM ent-B1, respectively. For panels E and F, N=14, 27, 29, 29, and 30 cells for DMSO, 0.03, 0.1, 1, and 3 μM ent-B1, respectively. Data are shown as mean±SD with individual data points.
FIGS. 10(A-B) show the spontaneous Ca^2+ release in intact mouse Casq2^−/− cardiomyocytes. […] Cells were field stimulated at 3 Hz for 20 s before recording. Blue marks indicate final stimulations of pacing train, arrows SCR events. Recording duration was 40 s before 10 mM caffeine application to assess total SR Ca^2+ content. […] Data are shown as mean±SD.
Intracellular Ca^2+ measurements in intact cardiomyocytes—Ventricular cardiomyocytes were isolated from two male 10-week old and one female 13-week old Casq2^−/− mouse as described previously (Knollmann et al., 2006). Cardiomyocytes were pre-incubated for 2 hours with DMSO or ent-B1. Myocytes were then loaded with Fura-2 acetoxymethyl ester (Fura-2 AM; Invitrogen) as described previously (Batiste et al., 2019). Briefly, isolated single ventricular myocytes were incubated with 2 μM Fura-2 AM for 7 minutes to load the indicator in the cytosol. Myocytes were then washed twice for 10 minutes with normal Tyrode (NT) solution containing 250 μM probenecid (all solutions also contained either vehicle [DMSO] or ent-B1). The composition of NT used for Fura-2 loading and washing was (in mM): 134 NaCl, 5.4 KCl, 1.2 CaCl2, 1 MgCl2, 10 glucose, and 10 HEPES, pH adjusted to 7.4 with NaOH. After Fura-2 loading, all experiments were conducted in NT solution containing 1 μM isoproterenol and 2 mM CaCl2. Fura2-loaded myocytes were electrically paced at 3 Hz field stimulation and Ca transients were recorded for 20 seconds followed by no electrical stimulation for 40 seconds to record spontaneous Ca release events. After that, myocytes were perfused with 10 mM caffeine in NT solution for 5 seconds to estimate total SR Ca content. Fura-2 was measured using a dual-beam excitation fluorescence photometry setup (IonOptix Corp.) and analyzed using commercially available data analysis software (IonWizard, IonOptix, Milton, MA). All experiments were conducted at room temperature.
All tests were two-sided and a p-value cutoff of <0.05 was used to denote significance. Concentration-response curves for RyR2 single-channel, [^3H]ryanodine ligand binding and intact myocyte assays were generated using non-linear regression with the equation: Y=Bottom+(Top−Bottom)/(1+(IC50/X)^HillSlope) using least square regression, no weighting, and no constrains on the parameters. The distributions of relative RyR2 open probability at each [ent-B1] were normalized by taking the log of each sample. For the 3×3 crossover in vivo ECG study, a pre-test was conducted using a mixed model with fixed effects of sequence and period; mice were treated as random effects.

[2] = male, mouse, plasma, ip, 3 mg/kg intraperitoneal, CD1 mice
[3] = 3 μM (only the highest concentration tested)

CCCCC[C@@H]1OC(=O)[C@@H](C)N(C)C(=O)[C@H](CCCCC)OC(=O)[C@@H](C)N(C)C(=O)[C@H](CCCCC)OC(=O)[C@@H](C)N(C)C1=O (single isomer, unassigned) [ent-B1]
time of peak plasma concentration after i.p. injection ([1]; 3 mg/kg i.p.): 10 min | clinical observation during PK experiment ([1]; 3 mg/kg i.p., CD1 mice): no abnormality | ke (elimination rate constant) ([1]; 3 mg/kg intraperitoneal, CD1 mice): 0.932 ± 0.139 h⁻¹ | half-life ([1]; male, CD1, mouse, plasma, ip, 3 mg/kg i.p., mice, read-out: mean elimination half-life (t1/2)): 45.4 min | half-life ([1]; male, CD1, mouse, plasma, ip, 3 mg/kg intraperitoneal, CD1 mice, read-out: T1/2 (elimination half-life) (converted)): 45.4 ± 7.38 min | Cmax ([1]; male, CD1, mouse, plasma, ip, 3 mg/kg i.p., read-out: mean peak plasma concentration (Cmax)): 2.3 µM | Cmax ([1]; male, mouse, ip, 3 mg/kg intraperitoneal, CD1 mice, plasma, read-out: Cmax): 1.46 µg/mL | AUC(0-inf) [1, 2]: 1.02 ± 0.184 µg·h/mL | CL/F [1, 2]: 3.01 L/h/kg | Tmax [1, 2]: 10 min | Vd/F ([1]; male, mouse, plasma, ip, 3 mg/kg intraperitoneal, CD1 mice, read-out: Vz/F): 3.32 ± 1 L/kg | peak plasma concentration in vivo relative to IC50 in cardiomyocytes ([1]; mouse, in vivo): more than 10 fold | Ca2+ decay kinetics (indicator of SERCA2 SR uptake rate) (RyR2): no effect | time-to-peak of Ca2+ transients (RyR2): no effect | amplitude of the caffeine-induced Ca2+ transient (RyR2; [3]): reduced | amplitude of the systolic Ca2+ transient (RyR2; [3]): reduced | diastolic Ca2+ levels (RyR2; [3]): reduced
